# Patent US20250171459A1, “2-METHYL-4',5'-DIHYDROSPIRO[PIPERIDINE-4,7'-THIENO[2,3-C]PYRAN] DERIVATIVES AS INHIBITORS OF APOL1 AND METHODS OF USING SAME” (Vertex Pharmaceuticals Incorporated, priority 2022, published 2025)
# Molecular target: T1, APOL1 (Homo sapiens, UniProt O14791)
# T1 sequence (O14791 1-398 S342G/I384M): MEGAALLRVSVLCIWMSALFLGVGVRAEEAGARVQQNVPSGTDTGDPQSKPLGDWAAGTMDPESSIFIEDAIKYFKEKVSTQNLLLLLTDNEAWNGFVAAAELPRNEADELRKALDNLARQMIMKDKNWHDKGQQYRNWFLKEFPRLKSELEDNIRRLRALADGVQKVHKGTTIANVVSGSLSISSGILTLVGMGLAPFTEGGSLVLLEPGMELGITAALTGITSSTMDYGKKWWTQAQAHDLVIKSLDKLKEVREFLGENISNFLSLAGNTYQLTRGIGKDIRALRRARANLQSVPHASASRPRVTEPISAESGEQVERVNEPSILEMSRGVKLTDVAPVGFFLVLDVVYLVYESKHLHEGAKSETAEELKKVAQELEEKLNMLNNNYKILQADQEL
# Assay: MultiTox-Fluor Multiplex Cytotoxicity Assay in tet-inducible APOL1 T-REx-HEK293 cells (cell rescue, ratio of dead to live cells)
# Type: cell-based
# Conditions: tet-inducible transgenic APOL1 T-REx-HEK293 cell lines, 50 ng/mL tet, 24 hours; read-out: IP50 (i.e., IC50 for cell proliferation)
# Procedure, shortened: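 T-REx-HEK293 cells with tet-inducible APOL1 were treated with compound (10 μM top, 10-point 3-fold dilution, duplicate) plus 50 ng/mL tetracycline for 24 h at 37° C, in DMEM with 2% tet-free FBS. MultiTox-Fluor protease signals gave a dead/live ratio, normalized to no tet (100% viability) and tet alone (0%).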
row,Structure (SMILES),IC50
1,CCc1cc2c(s1)CCO[C@@]21CCN(Cc2cn(CC(O)CN3CCCC3=O)nn2)[C@@H](C)C1 (stereo partly drawn) [Compound 99],< 100 nM
2,CCOC(=O)N[C@H]1C[C@@H](CN2CC[C@]3(C[C@@H]2C)OCCc2sc(CC)cc23)C1 [Compound 375],< 100 nM
3,CCOCCOCC(O)Cn1cc(CN2CC[C@]3(C[C@@H]2C)OCCc2sc(CC)cc23)nn1 (stereo partly drawn) [Compound 75],< 100 nM
4,"CCc1cc2c(s1)CCOC21CCN(Cc2ccc(NS(=O)(=O)CCCO)cc2)CC1 [Compound 1159, N-(4-((2′-ethyl-6′,7′-dihydrospiro[piperidine-4,4′-thieno[3,2-c]pyran]-1-yl)methyl)phenyl)-3-hydroxypropane-1-sulfonamide]",< 100 nM
5,CCc1cc2c(s1)CCO[C@@]21CCN(C[C@H]2C[C@@H](NC(=O)CC3(O)CCCCC3)C2)[C@@H](C)C1 [Compound 303],< 100 nM
6,CCc1cc2c(s1)CCO[C@@]21CCN(Cc2cn(C(C)(C)CS(C)(=O)=O)nn2)[C@@H](C)C1 [Compound 168],500 to 1000 nM
7,C[C@H]1C[C@@]2(CCN1CC1CCC1)OCCc1cc(CC(F)F)sc12 [Compound 576],100 to 500 nM
8,CCc1cc2c(s1)CCO[C@@]21CCN(CC(O)C(F)(F)F)[C@@H](C)C1 (stereo partly drawn) [Compound 241],100 to 500 nM
9,CCc1cc2c(s1)CCOC21CCN(Cc2cn(CCCN3CC(O)C3)nn2)CC1 [Compound 1115],500 to 1000 nM
10,CCc1cc2c(s1)CCO[C@]21CCN(Cc2cnn(CCS(C)(=O)=O)c2)[C@@H](C)C1 [Compound 271],< 100 nM
11,CCc1cc2c(s1)CCO[C@@]21CCN(CC2CN(C(=O)CO)C2)[C@@H](C)C1 [Compound 452],100 to 500 nM
12,CCc1cc2c(s1)CCO[C@@]21CCN(C[C@H]2C[C@@H](NC(=O)c3ccc(C)nn3)C2)[C@@H](C)C1 [Compound 328],100 to 500 nM
13,CCc1cc2c(s1)CCO[C@@]21CCN(Cc2cn(Cc3nnc(C)o3)nn2)[C@@H](C)C1 [Compound 176],100 to 500 nM
14,CCc1cc2c(s1)CCOC21CCN(Cc2nc(-c3ccccc3)[nH]c2Cl)CC1 [Compound 1145],500 to 1000 nM
15,C[C@H](O)CN1CC[C@]2(C[C@@H]1C)OCCc1sc(Cl)cc12 [Compound 507],100 to 500 nM
16,"COCc1c(Cl)sc2c1CCO[C@@]21CCN(Cc2cnn(CCS(C)(=O)=O)c2)[C@@H](C)C1 [Compound 762, (2′S, 7R)-2-chloro-3-(methoxymethyl)-2′-methyl-1′-[[1-(2-methylsulfonylethyl)pyrazol-4-yl]methyl]spiro[4,5-dihydrothieno[2,3-c]pyran-7,4′-piperidine]]",< 100 nM
17,CCc1cc2c(s1)CCO[C@@]21CCN(CC2CN(C(=O)c3ncc(C)[nH]3)C2)[C@@H](C)C1 [Compound 470],< 100 nM
18,CCc1cc2c(s1)CCO[C@@]21CCN(C[C@H]2C[C@@H](NC(=O)C3CCC3(F)F)C2)[C@@H](C)C1 (stereo partly drawn) [Compound 325],< 100 nM
19,CCc1cc2c(s1)CCOC21CCN(Cc2ccc(C(=O)NC(C)(C)CO)nc2)CC1 [Compound 1047],< 100 nM
20,CCc1ncc(CN2CC[C@]3(C[C@@H]2C)OCCc2c3sc(Cl)c2CO)cn1 [Compound 733],100 to 500 nM
21,C[C@H]1C[C@@]2(CCN1CC(F)F)OCCc1cc(CC(F)F)sc12 [Compound 616],500 to 1000 nM
22,C[C@H]1C[C@@]2(CCN1Cc1cccc(OCC(N)=O)c1)OC[C@H](O)c1cc(Cl)sc12 [Compound 771],100 to 500 nM
23,C[C@H]1C[C@@]2(CCN1Cc1ccccn1)OCCc1c2sc(Cl)c1CO [Compound 758],500 to 1000 nM
24,CCc1cc2c(s1)CCO[C@@]21CCN(CC2CN(C(=O)N(C)C)C2)[C@@H](C)C1 [Compound 490],500 to 1000 nM
25,C[C@H]1C[C@@]2(CCN1Cc1cnn(CCS(C)(=O)=O)c1)OCCc1c2sc(Cl)c1CO [Compound 754],< 100 nM
26,CCc1cc2c(s1)CCOC21CCN(Cc2cn(CCS(=O)(=O)CC3CC3)nn2)CC1 [Compound 1090],500 to 1000 nM
27,CCc1cc2c(s1)CCO[C@@]21CCN(Cc2cn(CC3(S(C)(=O)=O)CC3)nn2)[C@@H](C)C1 [Compound 156],< 100 nM

row,Structure (SMILES),IC50
1,CCc1cc2c(s1)CCO[C@@]21CCN(Cc2cnc(N[C@H]3CC[C@H](O)C3)nc2)[C@@H](C)C1 [Compound 204],< 100 nM
2,"C[C@H]1C[C@@]2(CCN1Cc1cnn(CC(O)C(C)(C)O)c1)OCC(O)(C(F)F)c1cc(Cl)sc12 (stereo in doubt) [Compound 829, 1-[4-[[(2′S,4R,7R)-2-chloro-4-(difluoromethyl)-4-hydroxy-2′-methyl-spiro[5H-thieno[2,3-c]pyran-7,4′-piperidine]-1′-yl]methyl]pyrazol-1-yl]-3-methyl-butane-2,3-diol]",< 100 nM
3,CCc1cc2c(s1)CCO[C@@]21CCN(CC2(O)CCS(=O)(=O)CC2)[C@@H](C)C1 [Compound 257],100 to 500 nM
4,CCc1cc2c(s1)CCOC21CCN(Cc2cn(CCS(=O)(=O)NC)nn2)CC1 [Compound 1083],500 to 1000 nM
5,C[C@H]1C[C@@]2(CCN1Cc1cnn(Cc3cnccn3)c1)OCCc1c2sc(C(F)(F)F)c1CO [Compound 902],< 100 nM
6,"C[C@H]1C[C@@]2(CCN1Cc1cnn(C[C@@H](O)C(=O)N(C)C)c1)OCCc1c2sc(C(F)(F)F)c1CO [Compound 987, (2R)-2-hydroxy-3-[4-[[(2′S, 7R)-3-(hydroxymethyl)-2′-methyl-2-(trifluoromethyl)spiro[4,5-dihydrothieno[2,3-c]pyran-7,4′-piperidine]-1′-yl]methyl]pyrazol-1-yl]-N,N-dimethyl-propanamide]",< 100 nM
7,CCc1cc2c(s1)CCO[C@@]21CCN(CC2CN(C(=O)c3cc(C(F)F)[nH]n3)C2)[C@@H](C)C1 [Compound 461],< 100 nM
8,CC(c1nnc[nH]1)n1cc(CN2CC[C@]3(C[C@@H]2C)OCCc2c3sc(C(F)(F)F)c2CO)cn1 (stereo partly drawn) [Compound 925],100 to 500 nM
9,CCc1cc2c(s1)CCO[C@@]21CCN(C[C@H]2C[C@@H](NC(=O)[C@H]3CCCO3)C2)[C@@H](C)C1 [Compound 368],100 to 500 nM
10,C[C@H]1C[C@@]2(CCN1Cc1ccc(C(=O)N(C)C)cc1)OC[C@H](O)c1cc(Cl)sc12 [Compound 810],100 to 500 nM
11,Cc1cccc(CN2CC[C@]3(C[C@@H]2C)OCCc2cc(Cl)sc23)n1 [Compound 680],500 to 1000 nM
12,CCc1cc2c(s1)CCO[C@@]21CCN(C[C@H]2C[C@@H](NC(=O)CCN3CCCCC3)C2)[C@@H](C)C1 [Compound 322],100 to 500 nM
13,COc1ccc(CN2CC[C@]3(C[C@@H]2C)OC[C@H](O)c2cc(Cl)sc23)cn1 [Compound 804],< 100 nM
14,C[C@H]1C[C@@]2(CCN1Cc1cnn(CC(O)C(F)(F)F)c1)OCCc1c2sc(C(F)(F)F)c1CO (stereo partly drawn) [Compound 894],< 100 nM
15,CCc1cc2c(s1)CCO[C@@]21CCN(C[C@H]2C[C@@H](NC(=O)COC)C2)[C@@H](C)C1 [Compound 348],100 to 500 nM
16,CCc1cc2c(s1)CCO[C@@]21CCN(Cc2cn(CCOCCOCCOCCO)nn2)[C@@H](C)C1 [Compound 197],100 to 500 nM
17,"C[C@H]1C[C@@]2(CCN1Cc1cnn(CCS(C)(=O)=O)c1)OCCc1cc(C#N)sc12 [Compound 1035, (2′S,7R)-2′-methyl-1′-[[1-(2-methylsulfonylethyl)pyrazol-4-yl]methyl]spiro[4,5-dihydrothieno[2,3-c]pyran-7,4′-piperidine]-2-carbonitrile]",< 100 nM
18,CCc1cc2c(s1)CCO[C@@]21CCN(CC2CN(C(=O)c3cnn(C)c3)C2)[C@@H](C)C1 [Compound 429],< 100 nM
19,CCc1cc2c(s1)CCO[C@@]21CCN(Cc2cn(Cc3c(C)cc(C)nc3O)nn2)[C@@H](C)C1 [Compound 66],100 to 500 nM
20,"C[C@H]1C[C@@]2(CCN1Cc1cnn(CCS(C)(=O)=O)c1)OCCc1cc(CC(F)F)sc12 [Compound 559, (2′S, 7R)-2-(2,2-difluoroethyl)-2′-methyl-1′-[[1-(2-methylsulfonylethyl)pyrazol-4-yl]methyl]spiro[4,5-dihydrothieno[2,3-c]pyran-7,4′-piperidine]]",< 100 nM
21,CCc1cc2c(s1)CCOC21CCN(Cc2ccc3[nH]ncc3c2)CC1 [Compound 1128],< 100 nM
22,C[C@H]1C[C@@]2(CCN1Cc1cnn(CS(=O)(=O)N(C)C)c1)OCCc1c2sc(C(F)(F)F)c1CO [Compound 924],< 100 nM
23,C[C@H]1C[C@@]2(CCN1Cc1ccc(N3CCCC3=O)cc1)OC[C@H](O)c1cc(Cl)sc12 [Compound 777],< 100 nM
24,CCc1cc2c(s1)CCOC21CCN(Cc2ccc(NC3(COC)CC3)nc2)CC1 [Compound 1072],100 to 500 nM
25,CCc1cc2c(s1)CCOC21CCN(Cc2cn(CC3CNC(=O)O3)nn2)CC1 (stereo not drawn) [Compound 1118],500 to 1000 nM
26,CCc1cc2c(s1)CCO[C@@]21CCN(CC(O)C(N)=O)[C@@H](C)C1 (stereo partly drawn) [Compound 240],100 to 500 nM
27,"CNC(=O)[C@@H](O)CN1CC[C@]2(C[C@@H]1C)OCCc1cc(Cl)sc12 [Compound 710, (2S)-3-[(2′S, 7R)-2-chloro-2′-methyl-spiro[4,5-dihydrothieno[2,3-c]pyran-7,4′-piperidine]-1′-yl]-2-hydroxy-N-methyl-propanamide]",500 to 1000 nM
